Assay results: patent publication US3966734A, “Method for the purification of 6-methoxy-1-phenazinol 5,10-dioxide” (Hoffmann-La Roche Inc., priority 1975, dated 1976)

Tests used:
[1] = system: gram positive and gram negative bacteria, fungi, protozoa and helminths; experiment: Anti-microbial activity in in vitro tests and in vivo topical infections (general statement)
[2] = Solubility in water; type: physicochemical
[3] = system: S. agalactiae; experiment: In vivo anti-microbial activity against S. agalactiae
Method: (§1) For example, the anti-microbial activity of calcium myxin dihydrate, prepared by the method of this invention, is evaluated and compared to that of myxin itself both in vivo against 4 strains of bacteria and in vitro against yeast and fungus infections.

[4] = system: S. aureus; experiment: In vivo anti-microbial activity against S. aureus
Method: as §1

[5] = system: E. coli; experiment: In vivo anti-microbial activity against E. coli
Method: as §1

[6] = system: P. aeruginosa; experiment: In vivo anti-microbial activity against P. aeruginosa
Method: as §1

[7] = system: C. albicans; experiment: In vitro anti-microbial activity (minimum inhibitory concentration) against C. albicans; type: cell-based
Method: as §1

[8] = system: M. canis; experiment: In vitro anti-microbial activity (minimum inhibitory concentration) against M. canis; type: cell-based
Method: as §1

Molecule | anti-microbial activity [1] | solubility in water [2] | ED50' (in vivo) [3] | ED50' (in vivo) [4] | ED50' (in vivo) [5] | ED50' (in vivo) [6] | Minimum Inhibitory Concentration, cidal ([7]; cidal) | Minimum Inhibitory Concentration, static ([7]; static) | Minimum Inhibitory Concentration, cidal ([8]; cidal) | Minimum Inhibitory Concentration, static ([8]; static)
COc1cccc2c1[n+]([O-])c1cccc(O)c1[n+]2[O-] [Myxin, 6-methoxy-1-phenazinol 5,10-dioxide] | high degree and wide spectrum of anti-microbial activity | very slightly soluble in water | – | – | – | – | – | – | – | –
6-methoxy-1-phenazinol 5,10-dioxide, calcium dihydrate complex [Calcium Myxin Dihydrate] | – | – | < 4 µg/mL | < 20 µg/mL | 60 µg/mL | 20 µg/mL | < 0.8 µg/mL | < 0.8 µg/mL | < 0.8 µg/mL | < 0.8 µg/mL
